Values joined by “and” are separate entries in the source; they are usually repeats but may differ in a detail not shown here. Equal values may be shown once. Toxic doses and inconclusive results are not listed. Cut-off read from the data, not from the text of the source: active = T/C of 150% or more; inactive = T/C below 125%. Peptide text beside a SMILES is read from it. * marks the point of attachment. ONp = O=[N+]([O-])c1ccc(O*)cc1; Cbz = O=C(OCc1ccccc1)*
System: L1210 leukemia ip in BDF1 mice, survival T/C
Test: NCI In Vivo Anticancer Drug Screen. Data for tumor model L1210 Leukemia (intraperitoneal) in B6D2F1 (BDF1) mice
Details: endpoint: mean survival time, higher = longer survival
Method in brief: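 Ratio derived from survival: compound-dosed mice over vehicle-dosed mice, all bearing a transplantable tumor.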

[1] = dose: 100.0 mg/kg/injection, schedule: Q01DX009 (ip), vehicle: saline with Tween-80
[2] = dose: 200.0 mg/kg/injection, schedule: Q01DX009 (ip), vehicle: saline with Tween-80
[3] = dose: 400.0 mg/kg/injection, schedule: Q01DX009 (ip), vehicle: saline with Tween-80
[4] = dose: 100.0 mg/kg/injection, schedule: Q01DX001 (ip), vehicle: saline
[5] = dose: 200.0 mg/kg/injection, schedule: Q01DX001 (ip), vehicle: saline
[6] = dose: 400.0 mg/kg/injection, schedule: Q01DX001 (ip), vehicle: saline
[7] = dose: 100.0 mg/kg/injection, schedule: Q04DX002 (ip), vehicle: Klucel (hydroxypropylcellulose) (HPC)
[8] = dose: 50.0 mg/kg/injection, schedule: Q01DX009 (ip), vehicle: Klucel (hydroxypropylcellulose) (HPC)
[9] = dose: 100.0 mg/kg/injection, schedule: Q04DX003 (ip), vehicle: saline with Tween-80
[10] = dose: 200.0 mg/kg/injection, schedule: Q04DX003 (ip), vehicle: saline with Tween-80

Measured: T/C

CCC(/C=N/N=C(N)N)=N\N=C(N)N
inactive: dose: 15.0 mg/kg/injection, schedule: Q01DX Z (ip), vehicle: saline 97 % of control | dose: 30.0 mg/kg/injection, schedule: Q01DX Z (ip), vehicle: saline 103 % of control | dose: 30.0 mg/kg/injection, schedule: Q01DX Z (oral), vehicle: saline 102 % of control | dose: 60.0 mg/kg/injection, schedule: Q01DX Z (ip), vehicle: saline 103 % of control and 115 % of control | dose: 60.0 mg/kg/injection, schedule: Q01DX Z (oral), vehicle: saline 101 % of control | dose: 120.0 mg/kg/injection, schedule: Q01DX Z (ip), vehicle: saline 108 % of control | dose: 120.0 mg/kg/injection, schedule: Q01DX Z (oral), vehicle: saline 97 % of control and 106 % of control | dose: 240.0 mg/kg/injection, schedule: Q01DX Z (oral), vehicle: saline 102 % of control and 104 % of control | dose: 480.0 mg/kg/injection, schedule: Q01DX Z (oral), vehicle: saline 111 % of control

C/C=C\c1ccc(OCCOC(=O)Nc2c(C)cccc2C)c(OC)c1
inactive: [1] 92 % of control | [2] 89 % of control | [3] 87 % of control

CCOC(=O)/C=C(/N)c1c(C)[nH]c2ccccc12
inactive: [4] 102 % of control | [5] 113 % of control | [6] 87 % of control

Nc1cc(Cl)cc2[nH]c(=O)c3cc(Cl)ccc3c12
inactive: dose: 100.0 mg/kg/injection, schedule: Q01DX001 (ip), vehicle: carboxymethylcellulose (CMC) 100 % of control | dose: 200.0 mg/kg/injection, schedule: Q01DX001 (ip), vehicle: carboxymethylcellulose (CMC) 102 % of control | dose: 400.0 mg/kg/injection, schedule: Q01DX001 (ip), vehicle: carboxymethylcellulose (CMC) 95 % of control

Cn1c(CO)nc2c1c(=O)[nH]c(=O)n2C
inactive: dose: 100.0 mg/kg/injection, schedule: Q01DX001 (ip), vehicle: other 98 % of control | dose: 200.0 mg/kg/injection, schedule: Q01DX001 (ip), vehicle: other 98 % of control | dose: 400.0 mg/kg/injection, schedule: Q01DX001 (ip), vehicle: other 95 % of control

CC1CN1P(=O)(OCCCl)N1CC1C (configuration not stated)
inactive: dose: 20.0 mg/kg/injection, schedule: Q01DX Z (ip), vehicle: saline 97 % of control | dose: 40.0 mg/kg/injection, schedule: Q01DX Z (ip), vehicle: saline 100 % of control | dose: 80.0 mg/kg/injection, schedule: Q01DX Z (ip), vehicle: saline 108 % of control | dose: 160.0 mg/kg/injection, schedule: Q01DX Z (ip), vehicle: saline 117 % of control

CCOP(=O)(OCC)SC=C(Cl)Cl
inactive: dose: 25.0 mg/kg/injection, schedule: Q04DX002 (ip), vehicle: saline with Tween-80 94 % of control | dose: 50.0 mg/kg/injection, schedule: Q04DX002 (ip), vehicle: saline with Tween-80 91 % of control | dose: 100.0 mg/kg/injection, schedule: Q04DX002 (ip), vehicle: saline with Tween-80 94 % of control and 95 % of control

O=C(COc1ccc(Cl)cc1Cl)Nc1ccc2ccccc2c1S(=O)(=O)O
inactive: dose: 25.0 mg/kg/injection, schedule: Q04DX002 (ip), vehicle: Klucel (hydroxypropylcellulose) (HPC) 112 % of control | dose: 50.0 mg/kg/injection, schedule: Q04DX002 (ip), vehicle: Klucel (hydroxypropylcellulose) (HPC) 98 % of control | [7] 94 % of control

CCOC(=O)C(=O)Cc1ccccc1[N+](=O)[O-]
inactive: dose: 100.0 mg/kg/injection, schedule: Q01DX001 (ip), vehicle: Klucel (hydroxypropylcellulose) (HPC) 96 % of control | dose: 200.0 mg/kg/injection, schedule: Q01DX001 (ip), vehicle: Klucel (hydroxypropylcellulose) (HPC) 102 % of control | dose: 400.0 mg/kg/injection, schedule: Q01DX001 (ip), vehicle: Klucel (hydroxypropylcellulose) (HPC) 95 % of control

Clc1ccc(C(c2ccc(Cl)cc2)C(Cl)(Cl)Cl)cc1
inactive: dose: 12.0 mg/kg/injection, schedule: Q01DX009 (ip), vehicle: saline 95 % of control | dose: 12.5 mg/kg/injection, schedule: Q01DX009 (ip), vehicle: acetone 97 % of control | dose: 25.0 mg/kg/injection, schedule: Q01DX009 (ip), vehicle: Klucel (hydroxypropylcellulose) (HPC) 90 % of control | dose: 25.0 mg/kg/injection, schedule: Q01DX009 (ip), vehicle: acetone 93 % of control | dose: 25.0 mg/kg/injection, schedule: Q01DX009 (ip), vehicle: saline 92 % of control | [8] 92 % of control | dose: 50.0 mg/kg/injection, schedule: Q01DX009 (ip), vehicle: acetone 100 % of control and 86 % of control | dose: 100.0 mg/kg/injection, schedule: Q01DX001 (ip), vehicle: acetone 93 % of control | dose: 100.0 mg/kg/injection, schedule: Q01DX009 (ip), vehicle: acetone 94 % of control | dose: 200.0 mg/kg/injection, schedule: Q01DX001 (ip), vehicle: acetone 87 % of control | [5] 90 % of control | dose: 200.0 mg/kg/injection, schedule: Q01DX009 (ip), vehicle: acetone 97 % of control | dose: 400.0 mg/kg/injection, schedule: Q01DX001 (ip), vehicle: acetone 92 % of control | dose: 800.0 mg/kg/injection, schedule: Q01DX001 (ip), vehicle: acetone 88 % of control | dose: 800.0 mg/kg/injection, schedule: Q01DX001 (ip), vehicle: saline 87 % of control

CS(=O)C(Cl)C(O)c1ccccc1 (configuration not stated)
inactive: dose: 100.0 mg/kg/injection, schedule: Q03DX002 (ip), vehicle: saline with Tween-80 117 % of control | dose: 400.0 mg/kg/injection, schedule: Q03DX002 (ip), vehicle: saline with Tween-80 110 % of control

COC1OC2COC(c3ccccc3)OC2C(O)C1OS(=O)(=O)c1ccc(C)cc1 (configuration not stated)
inactive: [9] 87 % of control | [10] 87 % of control

O=c1[nH]c(Nc2ccccc2)c(-c2ccccc2)c(=O)[nH]1
inactive: dose: 47.5 mg/kg/injection, schedule: Q01DX001 (ip), vehicle: gum acacia 98 % of control | dose: 95.0 mg/kg/injection, schedule: Q01DX001 (ip), vehicle: gum acacia 88 % of control | dose: 190.0 mg/kg/injection, schedule: Q01DX001 (ip), vehicle: gum acacia 114 % of control

O=C(CNC(=O)OCc1ccccc1)NCC(=O)Oc1ccc([N+](=O)[O-])cc1 (Cbz-Gly-Gly-ONp)
inactive: [1] 108 % of control | [9] 92 % of control | [2] 105 % of control | [10] 94 % of control | [3] 100 % of control | dose: 400.0 mg/kg/injection, schedule: Q04DX003 (ip), vehicle: saline with Tween-80 92 % of control

CCOC(=O)COc1ccc(N2C(N)=NC(N)=NC2(C)C)cc1
inactive: [4] 107 % of control | dose: 100.0 mg/kg/injection, schedule: Q01DX009 (ip), vehicle: saline 117 % of control | [5] 102 % of control | dose: 200.0 mg/kg/injection, schedule: Q01DX009 (ip), vehicle: saline 98 % of control | [6] 97 % of control | dose: 400.0 mg/kg/injection, schedule: Q01DX009 (ip), vehicle: saline 104 % of control

CN(C)CCCNC(=O)Nc1ccc(Cl)cc1
inactive: dose: 100.0 mg/kg/injection, schedule: Q04DX002 (ip), vehicle: other 101 % of control | dose: 200.0 mg/kg/injection, schedule: Q04DX002 (ip), vehicle: other 101 % of control | dose: 400.0 mg/kg/injection, schedule: Q04DX002 (ip), vehicle: other 97 % of control

COc1ccc(S(=O)(=O)NC(=O)NC23CC4CC(CC(C4)C2)C3)cc1
inactive: [8] 91 % of control | dose: 100.0 mg/kg/injection, schedule: Q01DX009 (ip), vehicle: Klucel (hydroxypropylcellulose) (HPC) 98 % of control | dose: 100.0 mg/kg/injection, schedule: Q04DX003 (ip), vehicle: Klucel (hydroxypropylcellulose) (HPC) 97 % of control | dose: 200.0 mg/kg/injection, schedule: Q04DX003 (ip), vehicle: Klucel (hydroxypropylcellulose) (HPC) 97 % of control | dose: 400.0 mg/kg/injection, schedule: Q04DX003 (ip), vehicle: Klucel (hydroxypropylcellulose) (HPC) 94 % of control

COC(=O)C(=O)CC(=O)c1ccccc1
inactive: [7] 116 % of control | dose: 200.0 mg/kg/injection, schedule: Q04DX002 (ip), vehicle: Klucel (hydroxypropylcellulose) (HPC) 106 % of control | dose: 400.0 mg/kg/injection, schedule: Q04DX002 (ip), vehicle: Klucel (hydroxypropylcellulose) (HPC) 118 % of control

O=C1OC2CC1(O)CC(O)C2O (configuration not stated)
inactive: dose: 50.0 mg/kg/injection, schedule: Q01DX009 (ip), vehicle: saline with Tween-80 92 % of control | [1] 94 % of control | [2] 92 % of control
